Assay results from doi:10.1101/2024.08.13.607785v1 (biorxiv, 2024).

What was measured:
Parameters in all cases: species or system mixed lysate of K562, MV4-11, THP-1, NCI-H1155
[1] = target: Casein kinase I isoform gamma-2 ; CSNK1G2 ; P78368 (Homo sapiens, UniProt P78368); settings: DIA-MS residual binding; binder
[2] = target: Ephrin type-A receptor 5 ; EPHA5 ; P54756 (Homo sapiens, UniProt P54756); settings: DIA-MS residual binding; binder
[3] = target: T1, Cyclin-G-associated kinase ; GAK ; O14976 (Homo sapiens, UniProt O14976); settings: DIA-MS residual binding; binder
T1 sequence (O14976 1-1311): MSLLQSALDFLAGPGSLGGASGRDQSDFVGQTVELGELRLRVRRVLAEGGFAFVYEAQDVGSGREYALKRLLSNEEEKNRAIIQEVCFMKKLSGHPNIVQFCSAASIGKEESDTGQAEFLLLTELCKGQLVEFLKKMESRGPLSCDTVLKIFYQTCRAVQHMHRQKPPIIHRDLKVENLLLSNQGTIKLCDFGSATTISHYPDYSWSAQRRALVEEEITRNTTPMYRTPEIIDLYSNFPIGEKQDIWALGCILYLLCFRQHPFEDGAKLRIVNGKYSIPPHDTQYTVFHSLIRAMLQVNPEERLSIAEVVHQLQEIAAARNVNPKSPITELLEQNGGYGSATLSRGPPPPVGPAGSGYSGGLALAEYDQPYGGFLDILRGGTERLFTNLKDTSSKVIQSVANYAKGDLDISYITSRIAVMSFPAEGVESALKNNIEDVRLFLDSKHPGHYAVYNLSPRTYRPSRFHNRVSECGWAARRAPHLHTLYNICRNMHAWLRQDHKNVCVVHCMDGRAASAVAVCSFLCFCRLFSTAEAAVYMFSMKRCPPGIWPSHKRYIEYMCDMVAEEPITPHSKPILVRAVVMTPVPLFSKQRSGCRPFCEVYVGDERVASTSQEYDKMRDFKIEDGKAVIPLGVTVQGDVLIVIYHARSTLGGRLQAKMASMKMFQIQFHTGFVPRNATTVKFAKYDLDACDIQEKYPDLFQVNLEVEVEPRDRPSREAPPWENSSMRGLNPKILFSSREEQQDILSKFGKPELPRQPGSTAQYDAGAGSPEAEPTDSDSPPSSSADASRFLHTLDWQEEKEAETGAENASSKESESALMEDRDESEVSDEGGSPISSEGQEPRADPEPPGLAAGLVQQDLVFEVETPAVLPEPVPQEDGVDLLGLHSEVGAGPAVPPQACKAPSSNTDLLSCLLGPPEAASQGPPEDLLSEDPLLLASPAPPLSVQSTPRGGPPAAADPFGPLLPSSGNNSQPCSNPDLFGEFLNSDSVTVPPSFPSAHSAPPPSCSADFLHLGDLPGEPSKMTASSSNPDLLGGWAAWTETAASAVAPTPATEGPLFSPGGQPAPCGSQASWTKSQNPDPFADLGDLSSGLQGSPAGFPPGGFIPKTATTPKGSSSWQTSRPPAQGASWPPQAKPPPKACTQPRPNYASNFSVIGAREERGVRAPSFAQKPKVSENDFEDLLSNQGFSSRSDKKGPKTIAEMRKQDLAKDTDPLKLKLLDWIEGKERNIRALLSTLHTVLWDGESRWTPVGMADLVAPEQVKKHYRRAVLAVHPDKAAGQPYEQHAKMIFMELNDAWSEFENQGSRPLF

[4] = target: Serine/threonine-protein kinase LMTK2 ; LMTK2 ; Q8IWU2 (Homo sapiens, UniProt Q8IWU2); settings: DIA-MS residual binding; binder
[5] = target: Tyrosine-protein kinase FRK ; FRK ; P42685 (Homo sapiens, UniProt P42685); settings: DIA-MS residual binding; binder
[6] = target: Peripheral plasma membrane protein CASK ; CASK ; O14936 (Homo sapiens, UniProt O14936); settings: DIA-MS residual binding; binder
[7] = target: T2, Discoidin domain-containing receptor 2 ; DDR2 ; Q16832 (Homo sapiens, UniProt Q16832); settings: binder
T2 sequence (Q16832 1-855): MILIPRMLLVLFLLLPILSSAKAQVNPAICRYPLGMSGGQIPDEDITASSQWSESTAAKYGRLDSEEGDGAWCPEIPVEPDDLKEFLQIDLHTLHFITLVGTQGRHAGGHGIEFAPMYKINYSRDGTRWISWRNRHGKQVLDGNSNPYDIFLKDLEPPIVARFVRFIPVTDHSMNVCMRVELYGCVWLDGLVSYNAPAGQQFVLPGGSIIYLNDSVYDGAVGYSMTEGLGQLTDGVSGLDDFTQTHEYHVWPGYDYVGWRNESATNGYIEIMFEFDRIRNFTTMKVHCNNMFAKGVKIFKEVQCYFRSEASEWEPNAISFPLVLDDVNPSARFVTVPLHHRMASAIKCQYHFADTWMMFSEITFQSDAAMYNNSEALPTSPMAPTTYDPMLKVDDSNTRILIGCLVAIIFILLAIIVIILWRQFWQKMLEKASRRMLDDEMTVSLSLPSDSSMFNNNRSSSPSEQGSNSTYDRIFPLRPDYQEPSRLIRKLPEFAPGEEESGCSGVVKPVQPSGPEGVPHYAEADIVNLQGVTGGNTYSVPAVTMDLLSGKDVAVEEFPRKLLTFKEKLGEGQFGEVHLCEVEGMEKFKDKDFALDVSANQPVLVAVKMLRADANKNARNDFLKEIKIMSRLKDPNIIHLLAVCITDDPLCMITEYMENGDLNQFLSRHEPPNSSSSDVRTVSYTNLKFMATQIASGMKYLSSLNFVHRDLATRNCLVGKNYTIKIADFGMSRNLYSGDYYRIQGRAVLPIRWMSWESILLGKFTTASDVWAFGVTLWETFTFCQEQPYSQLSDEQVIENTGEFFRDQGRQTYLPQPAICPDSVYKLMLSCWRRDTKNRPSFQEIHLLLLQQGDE

Chain of Serine/threonine-protein kinase LMTK2 ; LMTK2 ; Q8IWU2 (Q8IWU2 whole entry, one chain of several): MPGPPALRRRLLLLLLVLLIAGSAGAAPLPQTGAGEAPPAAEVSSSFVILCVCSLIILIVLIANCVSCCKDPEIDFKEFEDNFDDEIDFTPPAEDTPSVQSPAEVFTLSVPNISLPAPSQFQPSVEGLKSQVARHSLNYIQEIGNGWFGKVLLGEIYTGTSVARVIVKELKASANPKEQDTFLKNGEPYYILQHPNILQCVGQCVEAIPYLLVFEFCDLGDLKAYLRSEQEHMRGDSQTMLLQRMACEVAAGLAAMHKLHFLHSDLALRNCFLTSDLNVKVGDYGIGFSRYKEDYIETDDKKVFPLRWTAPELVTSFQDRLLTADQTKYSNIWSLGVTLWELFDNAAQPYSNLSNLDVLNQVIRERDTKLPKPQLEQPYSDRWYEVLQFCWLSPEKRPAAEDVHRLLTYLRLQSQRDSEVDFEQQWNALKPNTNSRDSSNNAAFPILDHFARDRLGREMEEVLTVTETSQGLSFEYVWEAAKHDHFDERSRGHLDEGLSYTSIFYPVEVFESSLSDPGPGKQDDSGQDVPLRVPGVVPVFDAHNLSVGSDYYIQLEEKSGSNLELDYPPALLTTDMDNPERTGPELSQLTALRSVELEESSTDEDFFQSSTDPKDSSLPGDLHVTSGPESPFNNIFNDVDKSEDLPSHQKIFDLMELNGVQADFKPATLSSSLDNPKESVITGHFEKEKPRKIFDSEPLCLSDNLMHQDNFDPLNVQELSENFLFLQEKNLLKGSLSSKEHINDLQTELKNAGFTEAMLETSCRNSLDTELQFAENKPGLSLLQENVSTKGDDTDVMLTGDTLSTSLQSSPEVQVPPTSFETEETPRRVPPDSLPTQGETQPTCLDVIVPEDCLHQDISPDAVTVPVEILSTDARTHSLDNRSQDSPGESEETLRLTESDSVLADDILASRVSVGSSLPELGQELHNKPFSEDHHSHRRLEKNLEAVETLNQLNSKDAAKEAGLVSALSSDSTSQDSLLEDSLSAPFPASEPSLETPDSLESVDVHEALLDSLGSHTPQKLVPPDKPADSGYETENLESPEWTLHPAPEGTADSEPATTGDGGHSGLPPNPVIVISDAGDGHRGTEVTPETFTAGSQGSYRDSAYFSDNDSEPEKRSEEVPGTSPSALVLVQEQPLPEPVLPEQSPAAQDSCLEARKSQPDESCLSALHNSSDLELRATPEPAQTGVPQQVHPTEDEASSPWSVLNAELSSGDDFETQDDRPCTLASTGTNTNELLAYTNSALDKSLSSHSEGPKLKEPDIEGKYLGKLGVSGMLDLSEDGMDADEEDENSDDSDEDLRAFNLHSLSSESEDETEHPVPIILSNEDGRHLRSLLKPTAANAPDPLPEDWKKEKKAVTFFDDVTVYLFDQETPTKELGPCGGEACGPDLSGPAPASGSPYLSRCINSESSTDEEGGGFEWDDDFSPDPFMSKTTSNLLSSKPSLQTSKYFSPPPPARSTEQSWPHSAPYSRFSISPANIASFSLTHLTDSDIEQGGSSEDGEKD
Chain of Ephrin type-A receptor 5 ; EPHA5 ; P54756 (P54756 whole entry): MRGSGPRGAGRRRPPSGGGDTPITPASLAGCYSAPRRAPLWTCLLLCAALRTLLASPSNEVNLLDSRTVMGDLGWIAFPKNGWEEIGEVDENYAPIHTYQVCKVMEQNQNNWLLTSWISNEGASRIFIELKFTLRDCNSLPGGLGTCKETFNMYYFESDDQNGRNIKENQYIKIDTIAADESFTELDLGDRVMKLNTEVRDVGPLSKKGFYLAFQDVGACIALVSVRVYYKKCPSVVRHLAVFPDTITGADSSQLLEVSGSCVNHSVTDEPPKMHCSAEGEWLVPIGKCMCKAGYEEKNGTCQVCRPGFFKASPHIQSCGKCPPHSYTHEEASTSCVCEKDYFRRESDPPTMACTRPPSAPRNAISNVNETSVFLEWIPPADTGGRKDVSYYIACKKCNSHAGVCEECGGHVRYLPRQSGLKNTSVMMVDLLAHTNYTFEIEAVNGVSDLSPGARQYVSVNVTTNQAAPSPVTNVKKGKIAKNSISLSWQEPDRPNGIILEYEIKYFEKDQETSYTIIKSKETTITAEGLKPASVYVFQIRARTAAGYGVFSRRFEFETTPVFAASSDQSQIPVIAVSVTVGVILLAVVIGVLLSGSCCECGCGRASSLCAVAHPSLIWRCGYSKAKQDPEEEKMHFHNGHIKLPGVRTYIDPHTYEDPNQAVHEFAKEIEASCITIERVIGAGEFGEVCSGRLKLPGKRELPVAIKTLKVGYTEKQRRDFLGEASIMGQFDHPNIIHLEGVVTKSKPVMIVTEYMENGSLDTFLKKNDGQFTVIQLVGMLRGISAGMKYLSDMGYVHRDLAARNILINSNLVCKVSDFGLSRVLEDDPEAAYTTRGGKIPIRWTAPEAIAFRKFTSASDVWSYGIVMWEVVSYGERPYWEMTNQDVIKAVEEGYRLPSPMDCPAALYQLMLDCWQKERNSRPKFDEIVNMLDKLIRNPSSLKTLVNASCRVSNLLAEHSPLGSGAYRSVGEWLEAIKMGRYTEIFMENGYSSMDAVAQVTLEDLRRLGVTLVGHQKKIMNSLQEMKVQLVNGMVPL
Chain of Casein kinase I isoform gamma-2 ; CSNK1G2 ; P78368 (P78368 whole entry, canonical isoform): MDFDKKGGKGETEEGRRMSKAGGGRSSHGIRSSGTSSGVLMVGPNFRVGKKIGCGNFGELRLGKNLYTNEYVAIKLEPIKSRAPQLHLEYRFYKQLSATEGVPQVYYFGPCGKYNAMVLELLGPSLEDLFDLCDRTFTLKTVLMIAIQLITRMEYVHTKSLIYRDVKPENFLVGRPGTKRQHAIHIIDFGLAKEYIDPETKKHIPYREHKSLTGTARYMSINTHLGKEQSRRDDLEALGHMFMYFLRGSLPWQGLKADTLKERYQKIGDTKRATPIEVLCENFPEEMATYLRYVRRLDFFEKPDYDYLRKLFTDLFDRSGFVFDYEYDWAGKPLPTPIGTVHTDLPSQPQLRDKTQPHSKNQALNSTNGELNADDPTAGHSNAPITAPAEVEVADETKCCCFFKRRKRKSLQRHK
Chain of Peripheral plasma membrane protein CASK ; CASK ; O14936 (O14936 whole entry, the tested form may be a part): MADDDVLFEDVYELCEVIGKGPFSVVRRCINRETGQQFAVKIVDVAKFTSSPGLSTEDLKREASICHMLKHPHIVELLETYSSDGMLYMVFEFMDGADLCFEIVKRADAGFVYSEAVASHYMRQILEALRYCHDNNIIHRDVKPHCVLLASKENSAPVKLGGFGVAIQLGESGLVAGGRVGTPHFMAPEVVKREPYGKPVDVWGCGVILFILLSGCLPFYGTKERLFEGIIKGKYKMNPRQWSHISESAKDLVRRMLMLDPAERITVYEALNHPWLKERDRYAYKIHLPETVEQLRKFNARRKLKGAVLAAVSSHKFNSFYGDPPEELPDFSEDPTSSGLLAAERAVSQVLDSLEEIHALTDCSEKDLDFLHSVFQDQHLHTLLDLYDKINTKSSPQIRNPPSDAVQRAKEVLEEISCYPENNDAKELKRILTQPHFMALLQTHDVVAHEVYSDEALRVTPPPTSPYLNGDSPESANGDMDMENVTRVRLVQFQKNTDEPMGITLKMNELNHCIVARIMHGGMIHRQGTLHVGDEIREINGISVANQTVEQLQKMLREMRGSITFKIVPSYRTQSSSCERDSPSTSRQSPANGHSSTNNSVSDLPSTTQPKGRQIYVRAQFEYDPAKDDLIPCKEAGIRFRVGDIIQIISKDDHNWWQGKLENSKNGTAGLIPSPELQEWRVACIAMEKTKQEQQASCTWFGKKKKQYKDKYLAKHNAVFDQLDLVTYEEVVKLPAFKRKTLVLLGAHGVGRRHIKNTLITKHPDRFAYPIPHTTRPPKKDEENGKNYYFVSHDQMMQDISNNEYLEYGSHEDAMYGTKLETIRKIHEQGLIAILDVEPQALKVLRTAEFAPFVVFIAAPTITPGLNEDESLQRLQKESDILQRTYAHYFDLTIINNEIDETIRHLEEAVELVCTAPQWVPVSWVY
Chain of Tyrosine-protein kinase FRK ; FRK ; P42685 (P42685 whole entry): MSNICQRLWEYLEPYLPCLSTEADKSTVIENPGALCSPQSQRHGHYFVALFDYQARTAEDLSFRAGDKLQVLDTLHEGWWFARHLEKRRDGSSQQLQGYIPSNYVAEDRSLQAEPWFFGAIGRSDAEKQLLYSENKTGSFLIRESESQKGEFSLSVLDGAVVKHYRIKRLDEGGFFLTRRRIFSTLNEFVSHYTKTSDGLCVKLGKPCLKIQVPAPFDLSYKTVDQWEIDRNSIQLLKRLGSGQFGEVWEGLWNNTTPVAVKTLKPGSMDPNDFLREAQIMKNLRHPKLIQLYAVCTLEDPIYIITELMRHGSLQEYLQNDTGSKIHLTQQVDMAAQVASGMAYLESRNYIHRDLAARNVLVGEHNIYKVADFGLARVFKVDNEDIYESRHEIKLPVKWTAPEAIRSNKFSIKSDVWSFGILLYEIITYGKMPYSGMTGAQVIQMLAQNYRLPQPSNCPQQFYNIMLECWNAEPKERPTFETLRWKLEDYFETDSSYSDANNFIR

`Cc1nc(Nc2ncc(C(=O)Nc3c(C)cccc3Cl)s2)cc(N2CCN(CCO)CC2)n1` [dasatinib] was tested, and the “DIA-MS / % Intensity (30 µM/DMSO)” value [1] was 45.01%, the “DIA-MS / % Intensity (30 µM/DMSO)” value [2] was 0.4604% and the “DIA-MS / % Intensity (30 µM/DMSO)” value [3] was 4.611%. For the same compound, the “DIA-MS / % Intensity (30 µM/DMSO)” value [4] was 9.818%, the “DIA-MS / % Intensity (30 µM/DMSO)” value [5] was 2.249% and the “DIA-MS / % Intensity (30 µM/DMSO)” value [6] was 21.6%. The “DIA-MS / % Intensity (30 µM/DMSO)” value [7] was 5.824%.
